Legend:
[1] = test system: 5-HT1A serotonin receptor; assay: 5-HT1A serotonin receptor on cellular membrane in hippocampus and hypothalamus of restraint-stressed mouse after forced swimming test (Western blotting); assay type: in vivo; settings: 1 mg/kg orally once per day, total 11 days, hippocampus, hypothalamus, FIG. 4
GSK-3β = assay: Phosphorylation of GSK-3β at Ser9 in hypothalamus of mouse under or not under restraint stress (Western blotting); assay type: in vivo; settings: total 11 days, FIG. 6
[2] = test system: 5-HT1A serotonin receptor; assay: Analysis of 5-HT receptor trafficking in rat hippocampus and hypothalamus sections (Western blotting of cellular membrane and cytoplasm fractions); assay type: cell-based; settings: DCP-LA 100 nM
[3] = test system: mouse under a restraint stress; assay: Forced swimming test after restraint stress (depression model); assay type: in vivo; settings: restraint-stressed mouse, 0.5, 0.75, 1.0, 5.0 mg/kg orally once per day, total 11 days; FIG. 3
Description: At present, in the study of depression using the behavior of an experiment animal, the efficacy of antidepressant and reaction to stress, which are the both sides of depression, are mainly utilized. In a depression model, a method for inducing depression in an animal by imposing a stress such as solitude, electric shock, forced immersion in water, peripheral environment, temperature change and the like is mainly used. In this Experimental Example, a restraint stress animal model was used. A symptom corresponding to depression was induced by loading a stress by enclosing an experiment animal in a narrow space inhibiting movement, and whether an antidepressive effect was observed when a test compound was administered was examined. Male C57BL/6J mouse at 8-week-old was purchased from Japan SLC Inc. (Shizuoka. Japan). The mouse was enclosed in a 11.5 cm plastic cylinder (diameter 2.7 cm) for 3 hr per day, which was performed for 4 consecutive days to impart a stress.
A forced swimming test is a behavioral test used for screening for an antidepressive effect of a compound. Also in this Experimental Example, a forced swimming test was performed according to a previous report after a restraint stress (Porsolt R D. Le Pichon M, Jalfre M. Depression: a new animal model sensitive, to antidepressant treatments. Nature 1977; 266:730-732.). […]

CCCCCC1CC1CC1CC1CCCCCCCC(=O)O (stereo not drawn) [DCP-LA, 8-[2-(2-Pentyl-cyclopropylmethyl)-cyclopropyl]-octanoic acid]
stress-induced decrease in 5-HT1A serotonin receptor on the cellular membrane [1]: recovered
phosphorylation of GSK-3β (Ser9) (GSK-3β; irrespective of the presence or absence of a restraint stress, mouse hypothalamus, 1 mg/kg orally): promote phosphorylation
stress-induced suppression of phosphorylation of GSK-3β (Ser9) (GSK-3β; mouse under restraint stress, hypothalamus, 1 mg/kg orally once per day): improves suppression of the phosphorylation
expression of 5-HT1A serotonin receptor on the cellular membrane (ratio of cellular membrane to whole cells) ([2]; 20 min, rat hippocampus and hypothalamus sections, compared with 5-HT2A serotonin receptor, FIG. 1): selectively increased
promoting action on cellular membrane trafficking of 5-HT1A serotonin receptor in the presence of inhibitors ([2]; rat hypothalamus section, GF109203X 100 nM, BoTX-A 0.1 U/ml, KN-93 3 μM, FIG. 2): significantly suppressed by BoTX and KN
immobility time in forced swimming test [3]: immobility time decreasing effect in a dose-dependent manner
